Laboratory results reported in patent US10294202B2, “Pyrrolidinones as herbicides” (FMC Corporation, priority 2013, dated 2019).

Tests used:
barnyardgrass [1] = assay: Test A pre-/postemergence herbicide test; assay type: in vivo, Echinochloa crus-galli
How it was run: (§1)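 Both application timings used compounds in a non-phytotoxic solvent plus surfactant. Pre-emergence: soil sprayed directly after seeding into loam/sand. Post-emergence: foliage of 2–10 cm seedlings (1–2 leaves) sprayed. Injury rated ~10 days later, 0–100.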

kochia = assay: Test A pre-/postemergence herbicide test; assay type: in vivo, Kochia scoparia; conditions: for Plant response rating, Kochia: 0 to 100 scale
How it was run: as §1

ragweed = assay: Test A pre-/postemergence herbicide test; assay type: in vivo, Ambrosia elatior; conditions: for Plant response rating, Ragweed: 0 to 100 scale
How it was run: as §1

ryegrass, Italian = assay: Test A pre-/postemergence herbicide test; assay type: in vivo, Lolium multiflorum; conditions: for Plant response rating, Ryegrass, Italian: 0 to 100 scale
How it was run: as §1

giant foxtail = assay: Test A pre-/postemergence herbicide test; assay type: in vivo, Setaria faberii; conditions: for Plant response rating, Foxtail, Giant: 0 to 100 scale
How it was run: as §1

pigweed = assay: Test A pre-/postemergence herbicide test; assay type: in vivo, Amaranthus retroflexus; conditions: for Plant response rating, Pigweed: 0 to 100 scale
How it was run: as §1

wheat = assay: Test A pre-/postemergence herbicide test; assay type: in vivo, Triticum aestivum; conditions: Postemergence; for Plant response rating, Wheat: 125 g ai/ha, 0 to 100 scale; for Wheat plant response rating (0 to 100 scale, 0 is no effect, 100 is complete control): 500 g ai/ha
How it was run: as §1

corn = assay: Test A pre-/postemergence herbicide test; assay type: in vivo, Zea mays; conditions: Postemergence; for Plant response rating, Corn: 125 g ai/ha, 0 to 100 scale; for Corn plant response rating (0 to 100 scale, 0 is no effect, 100 is complete control): 500 g ai/ha
How it was run: as §1

blackgrass = assay: Test A postemergence herbicide test; assay type: in vivo, Alopecurus myosuroides; conditions: for Plant response rating, Blackgrass: 125 g ai/ha, 0 to 100 scale; for Blackgrass plant response rating (0 to 100 scale, 0 is no effect, 100 is complete control): 500 g ai/ha
How it was run: (§2)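 Blackgrass and galium grown in pots of loam soil–sand blend, treated postemergence at 2–10 cm height, one- to two-leaf stage. Plants kept in greenhouse ~10 days, then visually rated for injury against untreated controls on a 0–100 scale (0 no effect, 100 complete control).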

galium = assay: Test A postemergence herbicide test; assay type: in vivo, Galium aparine; conditions: for Plant response rating, Galium: 125 g ai/ha, 0 to 100 scale; for Galium plant response rating (0 to 100 scale, 0 is no effect, 100 is complete control): 500 g ai/ha
How it was run: as §2

rice = assay: Test B flooded paddy test; assay type: in vivo, Oryza sativa; conditions: Flood, scale of 0 to 100 where 0 is no effect and 100 is complete control
How it was run: (§3)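 Paddy-water application at a 3 cm flood, young plants having two leaves. Water level maintained; greenhouse, 13–15 days; visual 0–100 control rating.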

sedge, umbrella = assay: Test B flooded paddy test; assay type: in vivo, Cyperus difformis; conditions: Flood, scale of 0 to 100 where 0 is no effect and 100 is complete control
How it was run: as §3

ducksalad = assay: Test B flooded paddy test; assay type: in vivo, Heteranthera limosa; conditions: Flood, scale of 0 to 100 where 0 is no effect and 100 is complete control
How it was run: as §3

barnyardgrass [2] = assay: Test B flooded paddy test; assay type: in vivo, Echinochloa crus-galli; conditions: Flood, scale of 0 to 100 where 0 is no effect and 100 is complete control
How it was run: as §3

[3] = 125 g ai/ha, visual rating, 0 to 100 scale, 0 no effect, 100 complete control, approximately 10 days, preemergence
[4] = 125 g ai/ha, visual rating, 0 no effect, 100 complete control, approximately 10 days, preemergence
[5] = Postemergence, 125 g ai/ha, 0 is no effect, 100 is complete control
[6] = preemergence, 500 g ai/ha, 0 is no effect and 100 is complete control
[7] = 0 is no effect, 100 is complete control
[8] = Postemergence, 125 g ai/ha, 0 no effect, 100 complete control
[9] = 0 no effect, 100 complete control

## O=C1NCC(c2ccc(-c3ccccc3F)cc2)C1C(=O)Nc1cccc(F)c1F (stereo not shown) [Compound 235]
Barnyardgrass [1]; [3]
  Plant response rating, Barnyardgrass: 0
Barnyardgrass [1]; Postemergence, 125 g ai/ha, 0 to 100 scale, 0 is no effect, 100 is complete control
  Plant response rating, Barnyardgrass: 10
Barnyardgrass [1]; Postemergence, 500 g ai/ha
  Barnyardgrass plant response rating (0 to 100 scale, 0 is no effect, 100 is complete control): 20
Barnyardgrass [1]; preemergence, 500 g ai/ha, 0 to 100 scale, 0 is no effect and 100 is complete control
  Plant response rating, Barnyardgrass: 60
kochia; [4]
  Plant response rating, Kochia: 0
kochia; [5]
  Plant response rating, Kochia: 0
kochia; Postemergence, 500 g ai/ha
  Kochia plant response rating (0 to 100 scale, 0 is no effect, 100 is complete control): 20
kochia; [6]
  Plant response rating, Kochia: 0
ragweed; [4]
  Plant response rating, Ragweed: 0
ragweed; [5]
  Plant response rating, Ragweed: 0
ragweed; Postemergence, 500 g ai/ha
  Ragweed plant response rating (0 to 100 scale, 0 is no effect, 100 is complete control): 0
ragweed; [6]
  Plant response rating, Ragweed: 0
ryegrass, Italian; [4]
  Plant response rating, Ryegrass, Italian: 0
ryegrass, Italian; [5]
  Plant response rating, Ryegrass, Italian: 0
ryegrass, Italian; Postemergence, 500 g ai/ha
  Ryegrass, Italian plant response rating (0 to 100 scale, 0 is no effect, 100 is complete control): 0
ryegrass, Italian; [6]
  Plant response rating, Ryegrass, Italian: 0
Giant foxtail; [4]
  Plant response rating, Foxtail, Giant: 40
Giant foxtail; [5]
  Plant response rating, Foxtail, Giant: 10
Giant foxtail; Postemergence, 500 g ai/ha
  Foxtail, Giant plant response rating (0 to 100 scale, 0 is no effect, 100 is complete control): 50
Giant foxtail; [6]
  Plant response rating, Foxtail, Giant: 80
pigweed; [4]
  Plant response rating, Pigweed: 0
pigweed; [5]
  Plant response rating, Pigweed: 0
pigweed; Postemergence, 500 g ai/ha
  Pigweed plant response rating (0 to 100 scale, 0 is no effect, 100 is complete control): 50
pigweed; [6]
  Plant response rating, Pigweed: 0
wheat; [7]
  Plant response rating, Wheat: 0
wheat
  Wheat plant response rating (0 to 100 scale, 0 is no effect, 100 is complete control): 0
corn; [7]
  Plant response rating, Corn: 0
corn
  Corn plant response rating (0 to 100 scale, 0 is no effect, 100 is complete control): 20
blackgrass; [7]
  Plant response rating, Blackgrass: 0
blackgrass
  Blackgrass plant response rating (0 to 100 scale, 0 is no effect, 100 is complete control): 20
galium; [7]
  Plant response rating, Galium: 50
galium
  Galium plant response rating (0 to 100 scale, 0 is no effect, 100 is complete control): 70
rice; 250 g ai/ha
  Plant response rating, Rice: 0
rice; 1000 g ai/ha
  Plant response rating, Rice: 0
sedge, umbrella; 250 g ai/ha
  Plant response rating, Sedge, Umbrella: 0
sedge, umbrella; 1000 g ai/ha
  Plant response rating, Sedge, Umbrella: 0
ducksalad; 250 g ai/ha
  Plant response rating, Ducksalad: 0
ducksalad; 1000 g ai/ha
  Plant response rating, Ducksalad: 50
Barnyardgrass [2]; 250 g ai/ha
  Plant response rating, Barnyardgrass: 0
Barnyardgrass [2]; 1000 g ai/ha
  Plant response rating, Barnyardgrass: 45

## Cc1ccc(C2CNC(=O)C2C(=O)Nc2ccccc2Cl)cc1F (racemic) [Compound 148]
Barnyardgrass [1]; [3]
  Plant response rating, Barnyardgrass: 30
Barnyardgrass [1]; Postemergence, 125 g ai/ha, 0 to 100 scale, 0 no effect, 100 complete control
  Plant response rating, Barnyardgrass: 50
Barnyardgrass [1]; Postemergence, 500 g ai/ha
  Barnyardgrass plant response rating (0 to 100 scale, 0 is no effect, 100 is complete control): 90
Barnyardgrass [1]; preemergence, 500 g ai/ha, 0 to 100 scale (0 no effect, 100 complete control)
  Plant response rating, Barnyardgrass: 90
kochia; [4]
  Plant response rating, Kochia: 30
kochia; [8]
  Plant response rating, Kochia: 0
kochia; Postemergence, 500 g ai/ha
  Kochia plant response rating (0 to 100 scale, 0 is no effect, 100 is complete control): 0
kochia; preemergence, 500 g ai/ha
  Plant response rating, Kochia: 30
ragweed; [4]
  Plant response rating, Ragweed: 0
ragweed; [8]
  Plant response rating, Ragweed: 0
ragweed; Postemergence, 500 g ai/ha
  Ragweed plant response rating (0 to 100 scale, 0 is no effect, 100 is complete control): 0
ragweed; preemergence, 500 g ai/ha
  Plant response rating, Ragweed: 0
ryegrass, Italian; [4]
  Plant response rating, Ryegrass, Italian: 0
ryegrass, Italian; [8]
  Plant response rating, Ryegrass, Italian: 0
ryegrass, Italian; Postemergence, 500 g ai/ha
  Ryegrass, Italian plant response rating (0 to 100 scale, 0 is no effect, 100 is complete control): 0
ryegrass, Italian; preemergence, 500 g ai/ha
  Plant response rating, Ryegrass, Italian: 0
Giant foxtail; [4]
  Plant response rating, Foxtail, Giant: 40
Giant foxtail; [8]
  Plant response rating, Foxtail, Giant: 20
Giant foxtail; Postemergence, 500 g ai/ha
  Foxtail, Giant plant response rating (0 to 100 scale, 0 is no effect, 100 is complete control): 30
Giant foxtail; preemergence, 500 g ai/ha
  Plant response rating, Foxtail, Giant: 90
pigweed; [4]
  Plant response rating, Pigweed: 0
pigweed; [8]
  Plant response rating, Pigweed: 0
pigweed; Postemergence, 500 g ai/ha
  Pigweed plant response rating (0 to 100 scale, 0 is no effect, 100 is complete control): 0
pigweed; preemergence, 500 g ai/ha
  Plant response rating, Pigweed: 0
wheat; [9]
  Plant response rating, Wheat: 0
wheat
  Wheat plant response rating (0 to 100 scale, 0 is no effect, 100 is complete control): 0
corn; [9]
  Plant response rating, Corn: 0
corn
  Corn plant response rating (0 to 100 scale, 0 is no effect, 100 is complete control): 0
blackgrass; [9]
  Plant response rating, Blackgrass: 0
blackgrass
  Blackgrass plant response rating (0 to 100 scale, 0 is no effect, 100 is complete control): 0
galium; [9]
  Plant response rating, Galium: 0
galium
  Galium plant response rating (0 to 100 scale, 0 is no effect, 100 is complete control): 40
rice; 500 g ai/ha
  Plant response rating, Rice: 0
sedge, umbrella; 500 g ai/ha
  Plant response rating, Sedge, Umbrella: 0
ducksalad; 500 g ai/ha
  Plant response rating, Ducksalad: 100
Barnyardgrass [2]; 500 g ai/ha
  Plant response rating, Barnyardgrass: 40
